Experimental data from ChEMBL document CHEMBL1201862, “PubChem BioAssay data set” (2004).
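Growth conditions: 96-well plates. Treatment: test compound, 48 hours, 5 concentrations. Analysis: linear interpolation between bracketing concentrations; unreached endpoints set to highest concentration. Abbreviation: GI50, concentration required for 50% inhibition of growth.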 Activity calls are given as the source filed them. Rule as the data show it: active = GI50 up to about 1.1 µM and inactive = higher.

Columns and labels:
Experiment in all cases: DTP human tumour cell line panel, 48 h
HL-60 = system: HL-60
A549 = system: A549
OVCAR-8 = system: OVCAR-8
SF-295 = system: SF-295
OVCAR-5 = system: OVCAR-5
SW-620 = system: SW-620
UACC-257 = system: UACC-257
786-0 = system: 786-0
RPMI-8226 = system: RPMI-8226
SK-MEL-5 = system: SK-MEL-5
M14 = system: M14
HT-29 = system: HT-29
MCF7 = system: MCF7
K562 = system: K562
Malme-3M = system: Malme-3M
MDA-N = system: MDA-N
CAKI-1 = system: CAKI-1
UACC-62 = system: UACC-62
IGROV-1 = system: IGROV-1
SNB-75 = system: SNB-75
UO-31 = system: UO-31
SN12C = system: SN12C
NCI-H522 = system: NCI-H522
MDA-MB-231 = system: MDA-MB-231
MDA-MB-435 = system: MDA-MB-435
COLO 205 = system: COLO 205
NCI-H226 = system: NCI-H226
HCT-15 = system: HCT-15
HOP-62 = system: HOP-62
RXF 393 = system: RXF 393
SF-539 = system: SF-539
EKVX = system: EKVX
OVCAR-3 = system: OVCAR-3
ACHN = system: ACHN
NCI/ADR-RES = system: NCI/ADR-RES
TK-10 = system: TK-10
U-251 = system: U-251
SK-MEL-28 = system: SK-MEL-28
HCT-116 = system: HCT-116
Hs-578T = system: Hs-578T
T47D = system: T47D
PC-3 = system: PC-3
SK-OV-3 = system: SK-OV-3
NCI-H460 = system: NCI-H460
OVCAR-4 = system: OVCAR-4
BT-549 = system: BT-549
DU-145 = system: DU-145
MOLT-4 = system: MOLT-4
KM12 = system: KM12
NCI-H23 = system: NCI-H23
LOX IMVI = system: LOX IMVI
SK-MEL-2 = system: SK-MEL-2
A498 = system: A498
SF-268 = system: SF-268
SNB-19 = system: SNB-19

In the case of C=C[C@H]1CN2CC[C@H]1C[C@@H]2[C@@H](O)c1ccnc2ccccc12 [CINCHONINE], the GI50 (HL-60) is reported as > 100 µM (inactive), the GI50 (A549) is reported as > 100 µM (inactive) and the GI50 (OVCAR-8) is reported as > 100 µM (inactive). For the same compound, the GI50 (SF-295) was > 100 µM (inactive), the GI50 (OVCAR-5) was > 100 µM (inactive) and the GI50 (SW-620) was > 100 µM (inactive). The GI50 (UACC-257) was > 100 µM (inactive), the GI50 (786-0) was > 100 µM (inactive) and the GI50 (RPMI-8226) was 22.9 µM (inactive). The GI50 (SK-MEL-5) was > 100 µM (inactive), the GI50 (M14) was 38.1 µM (inactive) and the GI50 (HT-29) was 46.8 µM (inactive). For the same compound, the GI50 (MCF7) was > 100 µM (inactive), the GI50 (K562) was 55.2 µM (inactive) and the GI50 (Malme-3M) was > 100 µM (inactive). For the same compound, the GI50 (MDA-N) was > 100 µM (inactive), the GI50 (CAKI-1) was > 100 µM (inactive) and the GI50 (UACC-62) was > 100 µM (inactive). The GI50 (IGROV-1) was 19.6 µM (inactive), the GI50 (SNB-75) was 22.8 µM (inactive) and the GI50 (UO-31) was 52.7 µM (inactive). The GI50 (SN12C) was > 100 µM (inactive), the GI50 (NCI-H522) was > 100 µM (inactive) and the GI50 (MDA-MB-231) was > 100 µM (inactive). The GI50 (MDA-MB-435) was > 100 µM (inactive), the GI50 (COLO 205) was > 100 µM (inactive) and the GI50 (NCI-H226) was > 100 µM (inactive). For the same compound, the GI50 (HCT-15) was > 100 µM, the GI50 (HOP-62) was 89.9 µM (inactive) and the GI50 (RXF 393) was > 100 µM (inactive). For the same compound, the GI50 (SF-539) was > 100 µM (inactive), the GI50 (EKVX) was 73.3 µM (inactive) and the GI50 (OVCAR-3) was > 100 µM (inactive). The GI50 (ACHN) was > 100 µM (inactive), the GI50 (NCI/ADR-RES) was > 100 µM (inactive) and the GI50 (TK-10) was > 100 µM (inactive). For the same compound, the GI50 (U-251) was > 100 µM (inactive), the GI50 (SK-MEL-28) was > 100 µM (inactive) and the GI50 (HCT-116) was > 100 µM (inactive). The GI50 (Hs-578T) was 1.26 µM (inactive), the GI50 (T47D) was > 100 µM (inactive) and the GI50 (PC-3) was > 100 µM (inactive). The GI50 (SK-OV-3) was > 100 µM (inactive), the GI50 (NCI-H460) was > 100 µM (inactive) and the GI50 (OVCAR-4) was 58.6 µM (inactive). For the same compound, the GI50 (BT-549) was > 100 µM (inactive), the GI50 (DU-145) was > 100 µM (inactive) and the GI50 (MOLT-4) was > 100 µM (inactive). The GI50 (KM12) was > 100 µM (inactive), the GI50 (NCI-H23) was > 100 µM (inactive) and the GI50 (LOX IMVI) was 5.4 µM (inactive). The GI50 (SK-MEL-2) was > 100 µM (inactive), the GI50 (A498) was 63 µM (inactive) and the GI50 (SF-268) was > 100 µM (inactive). For the same compound, the GI50 (SNB-19) was > 100 µM (inactive).
